Source: patent publication US8242275B2, “Bicyclic pyrazole compounds as antibacterial agents” (Janssen Pharmaceutica NV, priority 2005, dated 2012)
Values after ≈ are worked out from the molar mass of the structure shown. Read-outs that look alike come from different tables or passages of the source.

Key:
[1] = test system: E. coli KL-16 (GSC strain 4245); assay: In vitro antibacterial activity (MIC assay), broth microdilution; assay type: cell-based; details: Escherichia coli
Method in brief: (§1)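 Broth microdilution per NCCLS M7-A5: 11-point 2-fold compound dilutions from DMSO stocks, inoculum about 5×10^5 CFU/mL, incubation 35° C for 16–24 h. MIC scored visually against no-compound growth controls, in μg/mL.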

S. aureus ATCC13709 = assay: as above; assay type: cell-based; details: Staphylococcus aureus, ATCC13709; read-out: S. aureus ATCC13709 MIC
Method in brief: as §1

S. pneumoniae ATCC49619 = assay: as above; assay type: cell-based; details: Streptococcus pneumoniae, ATCC49619; read-out: S. pneumoniae ATCC49619 MIC
Method in brief: as §1

CipR MRSA OC3946 = assay: Resistant strains assay (broth microdilution MIC); assay type: cell-based; details: Staphylococcus aureus, read-out: MIC, Column E
Description: (§2) Compounds of the present invention were tested for activity against susceptible and resistant bacterial strains in vitro, and activity was compared to known anti-bacterial agents. Testing protocols followed NCCLS methodology for broth microdilution assays. MIC values in μg/mL are presented in Table 3 for the following strains: Column A: MSSA ATCC13709 (Smith); Column B: MSSA ATCC 29213; Column C: MRSA OC3726 (COL); Column D: MRSA OC2878.
MIC values in μg/mL are presented in Table 4 for the following strains: Column E: CipR MRSA OC3946; Column F: CipR MRSA OC4159; Column G: CipR MRSA OC4222; Column H: CipR MRSA OC5273.

E. coli DNA gyrase = target: T1, E. coli DNA gyrase (Escherichia coli, UniProt P0AES4+P0AES6); assay: DNA gyrase inhibition assay (supercoiling); assay type: biochemical; details: E. coli DNA gyrase supercoiling, visual inspection of gels; read-out: DNA Gyrase IC50 (converted)
T1 construct: purchased John Innes Enterprises Ltd. (John Innes Centre, UK)
Method in brief: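 Relaxed pBR322 (250 ng) was supercoiled by 0.2 unit gyrase in Tris-HCl pH 7.5, KCl, MgCl2, DTT, spermidine, 1 mM ATP, glycerol, albumin, 0.5% DMSO final, 30 min at 37° C. Products were resolved on 1.0% agarose gels with ethidium bromide staining.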

E. coli topoisomerase IV = target: T2, E. coli topoisomerase IV (Escherichia coli, UniProt P0AFI2+P20083); assay: Topoisomerase IV inhibition assay (relaxation); assay type: biochemical; details: E. coli topoisomerase IV relaxation, visual inspection of gels; read-out: Topoisomerase IV IC50 (converted)
T2 construct: purchased John Innes Enterprises Ltd. (John Innes Centre, UK)
Description: Inhibition of the relaxation activity of E. coli topoisomerase IV was determined using enzyme, buffers and substrates received from John Innes Enterprises Ltd. (John Innes Centre, UK). The reactions were performed according to the manufacturer's directions, with the following modifications.
DNA relaxation reactions were carried out in a total reaction volume of 20 μL, containing 300 ng of supercoiled pBR322, 40 mM HEPES-KOH (pH 7.6), 100 mM potassium glutamate, 10 mM Mg(OAc)2, 10 mM DTT, 4 μg/mL tRNA, 2 mM ATP, and 50 μg/mL BSA. Compounds, diluted in 10% DMSO, were added to the reaction mixture to reach a final concentration of 0.5% DMSO. Enzyme was diluted to 0.45 unit/μL in a solution of 40 mM HEPES-KOH (pH 7.6), 150 mM potassium glutamate, 1 mM DTT, 1 mM EDTA, and 40% glycerol. Diluted enzyme (0.9 unit) was added to each reaction.
The reactions were incubated at 37° C. for 45 min. The reactions were then cooled to 0° C. followed by addition of 3 μL of 40% glycerol, 100 mM Tris-HCl (pH 7.5), 50 mM EDTA, 0.5% SDS and 0.1% bromophenol blue. Samples were separated on 1.0% agarose gels. Gels were stained with Ethidium bromide and photographed with a Stratagene Eagle Eye II.

MSSA ATCC13709 (Smith) = assay: Resistant strains assay (broth microdilution MIC); assay type: cell-based; details: Staphylococcus aureus
Description: as §2

MSSA ATCC 29213 = assay: Resistant strains assay (broth microdilution MIC); assay type: cell-based; details: Staphylococcus aureus, read-out: MIC, Column B
Description: as §2

CipR MRSA OC4159 = assay: Resistant strains assay (broth microdilution MIC); assay type: cell-based; details: Staphylococcus aureus, read-out: MIC, Column F
Description: (§3) Testing protocols followed NCCLS methodology for broth microdilution assays.

CipR MRSA OC4222 = assay: Resistant strains assay (broth microdilution MIC); assay type: cell-based; details: Staphylococcus aureus, read-out: MIC, Column G
Description: as §3

CipR MRSA OC5273 = assay: Resistant strains assay (broth microdilution MIC); assay type: cell-based; details: Staphylococcus aureus, read-out: MIC, Column H
Description: as §3

MRSA OC2878 = assay: Resistant strains assay (broth microdilution MIC); assay type: cell-based; details: Staphylococcus aureus, read-out: MIC, Column D
Description: as §3

MRSA OC3726 (COL) = assay: Resistant strains assay (broth microdilution MIC); assay type: cell-based; details: Staphylococcus aureus, read-out: MIC, Column C
Description: as §3

T2 sequence (P0AFI2 whole entry): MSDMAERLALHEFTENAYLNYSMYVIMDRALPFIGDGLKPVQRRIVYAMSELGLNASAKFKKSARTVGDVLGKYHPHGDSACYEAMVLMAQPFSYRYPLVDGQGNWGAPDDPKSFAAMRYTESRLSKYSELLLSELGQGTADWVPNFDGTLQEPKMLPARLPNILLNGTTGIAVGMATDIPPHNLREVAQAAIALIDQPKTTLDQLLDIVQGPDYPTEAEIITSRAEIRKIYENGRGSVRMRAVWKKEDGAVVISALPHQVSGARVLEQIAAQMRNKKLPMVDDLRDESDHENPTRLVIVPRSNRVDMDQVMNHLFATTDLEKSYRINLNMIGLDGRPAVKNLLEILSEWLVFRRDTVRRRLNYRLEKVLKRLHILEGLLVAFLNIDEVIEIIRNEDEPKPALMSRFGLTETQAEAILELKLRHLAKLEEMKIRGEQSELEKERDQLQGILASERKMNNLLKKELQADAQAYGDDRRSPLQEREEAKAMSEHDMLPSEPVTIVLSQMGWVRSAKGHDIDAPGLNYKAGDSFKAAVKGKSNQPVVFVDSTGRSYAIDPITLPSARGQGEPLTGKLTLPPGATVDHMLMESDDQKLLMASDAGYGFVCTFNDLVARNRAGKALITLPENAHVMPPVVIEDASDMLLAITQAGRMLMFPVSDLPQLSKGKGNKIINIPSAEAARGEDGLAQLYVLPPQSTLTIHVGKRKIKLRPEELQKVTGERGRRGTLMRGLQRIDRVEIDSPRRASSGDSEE
T2 sequence (P20083 whole entry): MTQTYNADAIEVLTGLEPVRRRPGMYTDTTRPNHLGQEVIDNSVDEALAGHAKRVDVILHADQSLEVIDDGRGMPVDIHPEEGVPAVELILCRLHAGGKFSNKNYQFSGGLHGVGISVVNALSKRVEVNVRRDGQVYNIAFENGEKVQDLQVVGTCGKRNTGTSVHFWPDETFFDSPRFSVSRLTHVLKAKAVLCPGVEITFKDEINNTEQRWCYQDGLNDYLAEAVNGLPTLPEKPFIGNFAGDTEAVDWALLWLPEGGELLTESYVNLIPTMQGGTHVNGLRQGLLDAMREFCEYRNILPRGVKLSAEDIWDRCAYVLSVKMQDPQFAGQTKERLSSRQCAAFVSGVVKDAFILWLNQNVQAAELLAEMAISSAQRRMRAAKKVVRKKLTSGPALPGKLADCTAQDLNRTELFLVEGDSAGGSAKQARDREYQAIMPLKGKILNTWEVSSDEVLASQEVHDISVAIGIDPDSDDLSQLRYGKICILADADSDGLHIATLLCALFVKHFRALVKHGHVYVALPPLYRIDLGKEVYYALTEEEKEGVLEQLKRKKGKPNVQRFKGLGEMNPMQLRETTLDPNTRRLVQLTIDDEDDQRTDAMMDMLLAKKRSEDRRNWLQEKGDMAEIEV
T1 sequence (P0AES4 whole entry, one chain of several): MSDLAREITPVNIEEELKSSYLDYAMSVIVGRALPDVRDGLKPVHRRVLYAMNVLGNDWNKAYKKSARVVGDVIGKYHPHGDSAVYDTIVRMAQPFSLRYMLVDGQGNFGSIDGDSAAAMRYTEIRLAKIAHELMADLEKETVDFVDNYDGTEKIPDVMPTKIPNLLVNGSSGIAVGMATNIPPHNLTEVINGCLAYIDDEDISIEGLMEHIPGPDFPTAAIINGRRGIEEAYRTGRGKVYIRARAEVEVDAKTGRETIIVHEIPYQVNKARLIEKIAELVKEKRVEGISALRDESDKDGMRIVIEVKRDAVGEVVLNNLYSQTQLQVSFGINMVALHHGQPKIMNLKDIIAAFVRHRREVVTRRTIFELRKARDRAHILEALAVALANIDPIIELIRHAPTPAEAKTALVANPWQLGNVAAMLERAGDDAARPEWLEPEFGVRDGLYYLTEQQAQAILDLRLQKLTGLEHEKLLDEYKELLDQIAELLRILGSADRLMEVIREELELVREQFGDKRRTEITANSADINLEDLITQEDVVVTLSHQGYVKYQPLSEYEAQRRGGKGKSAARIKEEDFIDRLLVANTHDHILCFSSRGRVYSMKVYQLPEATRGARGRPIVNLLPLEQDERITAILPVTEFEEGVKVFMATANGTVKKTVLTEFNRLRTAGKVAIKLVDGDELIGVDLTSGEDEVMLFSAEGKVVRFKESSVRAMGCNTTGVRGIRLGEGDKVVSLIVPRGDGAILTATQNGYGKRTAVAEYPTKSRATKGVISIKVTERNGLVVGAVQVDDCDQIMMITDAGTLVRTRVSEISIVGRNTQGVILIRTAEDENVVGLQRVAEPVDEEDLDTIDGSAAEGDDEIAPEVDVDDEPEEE

Row | SMILES | MIC [1] | MIC (S. aureus ATCC13709) | MIC (S. pneumoniae ATCC49619) | MIC (CipR MRSA OC3946; MRSA) | IC50 (E. coli DNA gyrase) | IC50 (E. coli topoisomerase IV) | MIC (MSSA ATCC13709 (Smith)) | MIC (MSSA ATCC 29213) | MIC (CipR MRSA OC4159) | MIC (CipR MRSA OC4222; CipR MRSA OC4222) | MIC (CipR MRSA OC5273) | MIC (MRSA OC2878; MRSA OC2878) | MIC (MRSA OC3726 (COL); MRSA OC3726 (COL)) | MIC (CipR MRSA OC3946; CipR MRSA OC3946) | MIC (MRSA OC2878; MRSA) | MIC (MRSA OC3726 (COL); MRSA) | MIC (CipR MRSA OC4222; MRSA)
1 | O=C1CSc2ccc(C(=O)NC3CCc4nn(-c5cccc6cccnc56)cc4C3)cc2N1 (stereo not drawn) [Example 31, 3-Oxo-3,4-dihydro-2H-benzo[1,4]thiazine-6-carboxylic acid (2-quinolin-8-yl-4,5,6,7-tetrahydro-2H-indazol-5-yl)-amide] | 16 µg/mL (≈ 35.1 µM) | 0.25 µg/mL (≈ 0.549 µM) | 4 µg/mL (≈ 8.78 µM) | 0.125 µg/mL (≈ 0.274 µM) | 4390 nM | 274 nM | 0.25 µg/mL (≈ 0.549 µM) | 16 µg/mL (≈ 35.1 µM) | 4 µg/mL (≈ 8.78 µM) | 4 µg/mL (≈ 8.78 µM) | 0.5 µg/mL (≈ 1.1 µM) | 0.25 µg/mL (≈ 0.549 µM) | 0.5 µg/mL (≈ 1.1 µM) | – | – | – | –
2 | COc1ccc2nccc(-n3cc4c(n3)CCC(NC(=O)c3cc5c(cc3F)SCC(=O)N5)C4)c2n1 (stereo not drawn) [Example 5, 7-Fluoro-3-oxo-3,4-dihydro-2H-benzo[1,4]thiazine-6-carboxylic acid [2-(6-methoxy-[1,5]naphthyridin-4-yl)-4,5,6,7-tetrahydro-2H-indazol-5-yl]-amide] | 128 µg/mL (≈ 254 µM) | 0.25 µg/mL (≈ 0.495 µM) | 2 µg/mL (≈ 3.96 µM) | – | 238 nM | 248 nM | 0.25 µg/mL (≈ 0.495 µM) | 0.031 µg/mL (≈ 0.0614 µM) | 0.007 µg/mL (≈ 0.0139 µM) | 0.015 µg/mL (≈ 0.0297 µM) | 0.031 µg/mL (≈ 0.0614 µM) | 0.031 µg/mL (≈ 0.0614 µM) | 0.062 µg/mL (≈ 0.123 µM) | 0.007 µg/mL (≈ 0.0139 µM) | – | – | –
3 | COc1ccc2nccc(-n3cc4c(n3)CCC(NC(=O)c3ccc5c(c3)NC(=O)CS5)C4)c2c1 (stereo not drawn) [Example 17, 3-Oxo-3,4-dihydro-2H-benzo[1,4]thiazine-6-carboxylic acid [2-(6-methoxy-quinolin-4-yl)-4,5,6,7-tetrahydro-2H-indazol-5-yl]-amide] | 4 µg/mL (≈ 8.24 µM) | 0.25 µg/mL (≈ 0.515 µM) | 2 µg/mL (≈ 4.12 µM) | – | 247 nM | 257 nM | 0.25 µg/mL (≈ 0.515 µM) | 0.062 µg/mL (≈ 0.128 µM) | 0.031 µg/mL (≈ 0.0638 µM) | 0.062 µg/mL (≈ 0.128 µM) | 0.25 µg/mL (≈ 0.515 µM) | – | – | 0.015 µg/mL (≈ 0.0309 µM) | 0.125 µg/mL (≈ 0.257 µM) | 0.125 µg/mL (≈ 0.257 µM) | –
4 | COc1ccc2nccc(-n3cc4c(n3)CCC(NC(=O)c3ccc5c(c3)NC(=O)CS5)C4)c2n1 (stereo not drawn) [Example 4, 3-Oxo-3,4-dihydro-2H-benzo[1,4]thiazine-6-carboxylic acid [2-(6-methoxy-[1,5]naphthyridin-4-yl)-4,5,6,7-tetrahydro-2H-indazol-5-yl]-amide] | > 128 µg/mL | 0.06 µg/mL (≈ 0.123 µM) | 4 µg/mL (≈ 8.22 µM) | – | 514 nM | 514 nM | 0.06 µg/mL (≈ 0.123 µM) | 1 µg/mL (≈ 2.06 µM) | 0.5 µg/mL (≈ 1.03 µM) | 0.5 µg/mL (≈ 1.03 µM) | 0.062 µg/mL (≈ 0.127 µM) | 0.031 µg/mL (≈ 0.0637 µM) | 0.062 µg/mL (≈ 0.127 µM) | 0.007 µg/mL (≈ 0.0144 µM) | – | – | –
5 | COc1ccc2nccc(-n3cc4c(n3)CCC(NCc3ccc5c(c3)NC(=O)CS5)C4)c2n1 (stereo not drawn) [Example 41, 6-{[2-(6-Methoxy-[1,5]naphthyridin-4-yl)-4,5,6,7-tetrahydro-2H-indazol-5-ylamino]-methyl}-4H-benzo[1,4]thiazin-3-one] | 2 µg/mL (≈ 4.23 µM) | 0.25 µg/mL (≈ 0.529 µM) | 2 µg/mL (≈ 4.23 µM) | – | 127 nM | 33.9 nM | 0.25 µg/mL (≈ 0.529 µM) | 0.25 µg/mL (≈ 0.529 µM) | 0.25 µg/mL (≈ 0.529 µM) | 0.25 µg/mL (≈ 0.529 µM) | 0.5 µg/mL (≈ 1.06 µM) | 0.5 µg/mL (≈ 1.06 µM) | 1 µg/mL (≈ 2.12 µM) | 0.25 µg/mL (≈ 0.529 µM) | – | – | –
6 | COc1ccc2nccc(-n3cc4c(n3)CCC(NCc3ccc5c(c3)NC(=O)CS5)C4)c2c1 (stereo not drawn) [Example 52, 6-{[2-(6-Methoxy-quinolin-4-yl)-4,5,6,7-tetrahydro-2H-indazol-5-ylamino]-methyl}-4H-benzo[1,4]thiazin-3-one] | 2 µg/mL (≈ 4.24 µM) | 0.25 µg/mL (≈ 0.53 µM) | 1 µg/mL (≈ 2.12 µM) | 0.125 µg/mL (≈ 0.265 µM) | 265 nM | 63.6 nM | 0.25 µg/mL (≈ 0.53 µM) | 1 µg/mL (≈ 2.12 µM) | 0.25 µg/mL (≈ 0.53 µM) | – | 0.5 µg/mL (≈ 1.06 µM) | 0.5 µg/mL (≈ 1.06 µM) | 0.5 µg/mL (≈ 1.06 µM) | – | – | – | 0.125 µg/mL (≈ 0.265 µM)
